Laboratory results: US11046690B2, “Pyridazinones and methods of use thereof” (Goldfinch Bio, Inc., priority 2018, dated 2021)

Molecular target: T1, TRPC4 (Homo sapiens, UniProt Q9UBN4)
T1 construct: expressed in transfected cells
T1 sequence (Q9UBN4 1-982 isoform Q9UBN4-5): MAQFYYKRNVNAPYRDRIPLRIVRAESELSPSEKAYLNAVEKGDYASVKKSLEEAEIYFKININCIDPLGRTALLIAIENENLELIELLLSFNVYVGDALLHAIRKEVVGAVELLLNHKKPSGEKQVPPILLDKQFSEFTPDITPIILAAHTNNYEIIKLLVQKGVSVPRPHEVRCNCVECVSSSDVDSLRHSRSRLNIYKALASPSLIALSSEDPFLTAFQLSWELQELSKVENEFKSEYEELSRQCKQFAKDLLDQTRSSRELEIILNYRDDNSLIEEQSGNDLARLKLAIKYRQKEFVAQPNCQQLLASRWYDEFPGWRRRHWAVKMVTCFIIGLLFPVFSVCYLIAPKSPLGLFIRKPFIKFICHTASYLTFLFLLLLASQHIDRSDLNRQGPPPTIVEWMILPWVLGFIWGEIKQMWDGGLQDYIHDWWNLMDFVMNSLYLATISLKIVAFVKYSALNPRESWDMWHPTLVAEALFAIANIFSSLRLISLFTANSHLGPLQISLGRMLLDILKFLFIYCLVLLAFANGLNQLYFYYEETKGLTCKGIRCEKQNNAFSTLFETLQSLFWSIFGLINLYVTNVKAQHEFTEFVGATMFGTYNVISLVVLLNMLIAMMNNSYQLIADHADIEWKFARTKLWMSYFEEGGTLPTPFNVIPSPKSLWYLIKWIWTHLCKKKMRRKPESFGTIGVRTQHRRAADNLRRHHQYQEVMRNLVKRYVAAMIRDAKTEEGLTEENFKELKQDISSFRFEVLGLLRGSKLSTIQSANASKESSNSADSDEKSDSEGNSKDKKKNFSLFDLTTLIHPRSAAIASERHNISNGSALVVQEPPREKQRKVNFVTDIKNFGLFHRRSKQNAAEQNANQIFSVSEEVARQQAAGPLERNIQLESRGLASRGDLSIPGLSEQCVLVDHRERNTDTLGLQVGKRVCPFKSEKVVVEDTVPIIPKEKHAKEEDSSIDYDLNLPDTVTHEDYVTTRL
Test: TRPC4 activity assay (FLIPR calcium fluorescence, Englerin A stimulation)
Assay type: cell-based
Conditions: HEK-TREx hTRPC4 cells, 100 nM Englerin A stimulation; read-out: TRPC4 (IC50 class)
Experimental: ICLN-1694 cells (HEK-TREx hTRPC4) expressing TRPC4 were generated as follows. Commercially available HekTrex-293 cells were seeded at 0.7×10^6 cells/well in a 1×6-well plate 24 hrs prior to transfection using 2 mL cell growth media containing no antibiotics (1× DMEM/high glucose (Hyclone #SH30022.02); 10%0/fetal bovine serum (Sigma) 2 mM sodium pyruvate, 10 mM HEPES). […] On day 2, 2 μg of plasmid DNA plus 6 μl of Xtreme-GENE HP reagent in Optimem (200 μl total volume) was prepared and incubated for 15 min at room temperature. This plasmid solution was then gently overlayed dropwise onto each well and the plate was gently swirled to mix complex with the media for approximately 30 seconds. Transfected cells were incubated at 37° C. in a 10% C02 incubator for 24 hrs. The transfected cells were harvested and transferred into 2×150 mm dishes containing cell growth media with no antibiotics at 37° C.
The next day selection was initiated to generate a stable pool by adding cell growth media containing 150 μg/mL Hygromycin and 5 μg/mL Blasticidin and cells were allowed to grow. Media with the selection agent was changed every 1-2 days as needed to remove dead cells. After 7 days, the hygromycin concentration was reduced to 75 μg/mL and cells growth was allowed to continue.
Single clones were selected as follows. The stable pool was diluted to 10 cells/mL and seeded (100 μl/well) into 24×96 well plates (˜1 cell/well) and allowed to grow for 7 days in cell growth media. Fresh media (100 μl) was added and the cells allowed to grow for another 1-2 weeks and then stored frozen or used immediately.
10-point dose response curves were generated using the Echo-550 acoustic dispenser. Compound source plates were made by serially diluting compound stocks to create 10 mM, 1 mM, and 0.1 mM solutions in DMSO into Echo-certified LDV plates. The Echo then serially spotted 100% DMSO stock solutions into source dose response plates to generate a 4-fold dilution scheme. 100% DMSO was added to the spotted dose response plates to bring the final volume to 5 μl. […] of the dose response stock plate was then spotted into pre-incubation and stimulation assay plates. 50 μl of pre-incubation buffer and 100 μl of stimulation buffer was then added to the plates resulting in a final assay test concentration range of 30 μM to 0.0001 μM with a final DMSO concentration of 0.3%.
ICLN-1694 cells (HEK-TREx hTRPC4) were plated onto 384 well, black pdl-coated microplates and maintained in cell growth media supplemented with 1 μg/mL tetracycline the day prior to use for experiments. TRPC4 expression was induced by the application of 1 μg/mL tetracycline at the time of plating. […] Cells were incubated at room temperature, protected from light, for 60-90 minutes. After the incubation period, the dye was removed and replaced with 10 μl of EBSS. Cell, pre-incubation and stimulation plates were loaded onto the FLIPR-II and the assay was initiated. The FLIPR measured a 10 second baseline and then added 10 μl of 2X compounds (or controls). Changes in fluorescence were monitored for an additional 5 minutes. After a 5 minute pre-incubation, 20 μl of 2X Englerin A (with 1X compound or controls) was added to the cell plate. The final Englerin A stimulation concentration in the assay was 100 nM. After the Englerin A addition, changes in fluorescence were monitored for an additional 5 minutes.
Compound modulation of TRPC4 calcium response was determined as follows. After the Englerin A, fluorescence was monitored for a 5-minute period. The maximum relative fluorescence response (minus the control response of 1 μM of an internal control compound known to maximally block TRPC4 calcium response, the “REF INHIB” in the formula below) was captured and exported from the FLIPR.
Compound effect is calculated as % inhibition using the following formula:
[formula] wherein “RFU” is the relative fluorescent units.

| IC50 | SMILES |
| --- | --- |
| < 50 nM | O=c1[nH]ncc(N2CCc3c(ncnc3Oc3ccccc3Cl)C2)c1Cl [Compound 101] |
| < 50 nM | Nc1nc2c(c(Oc3ccccc3C(F)(F)F)n1)CCN(c1cn[nH]c(=O)c1Cl)C2 [Compound 102] |
| < 50 nM | O=c1[nH]ncc(N2CCc3c(ncnc3Oc3ccccc3C(F)F)C2)c1Cl [Compound 103, 4-Chloro-5-[4-[2-(difluoromethyl)phenoxy]-5H,6H,7H,8H-pyrido[3,4-d]pyrimidin-7-yl]-2,3-dihydropyridazin-3-one] |
| < 50 nM | O=c1[nH]ncc(N2CCc3c(ncnc3Oc3ccc(F)cc3C(F)F)C2)c1Cl [Compound 105] |
| 50 to 500 nM | O=c1[nH]ncc(N2CCc3c(ncnc3Oc3cc(F)ccc3C(F)(F)F)C2)c1Cl [Compound 106] |
| 50 to 500 nM | O=c1[nH]ncc(N2CCc3c(ncnc3Oc3cnccc3C(F)(F)F)C2)c1Cl [Compound 107] |
| 500 to 1000 nM | N#Cc1cccc(Oc2ncnc3c2CCN(c2cn[nH]c(=O)c2Cl)C3)c1Cl [Compound 108, 2-Chloro-3-[[7-(5-chloro-6-oxo-1,6-dihydropyridazin-4-yl)-5H,6H,7H,8H-pyrido[3,4-d]pyrimidin-4-yl]oxy]benzonitrile] |
| 50 to 500 nM | CCc1c(F)cccc1Oc1ncnc2c1CCN(c1cn[nH]c(=O)c1Cl)C2 [Compound 109, 4-Chloro-5-[4-(2-ethyl-3-fluorophenoxy)-5H,6H,7H,8H-pyrido[3,4-d]pyrimidin-7-yl]-2,3-dihydropyridazin-3-one] |
| < 50 nM | COc1nc2c(c(Oc3ccccc3C(F)(F)F)n1)CCN(c1cn[nH]c(=O)c1Cl)C2 [Compound 110, 4-Chloro-5-[2-methoxy-4-[2-(trifluoromethyl)phenoxy]-5H,6H,7H,8H-pyrido[3,4-d]pyrimidin-7-yl]-2,3-dihydropyridazin-3-one] |
| 50 to 500 nM | Nc1nc2c(c(Oc3ccc(F)cc3Cl)n1)CCN(c1cn[nH]c(=O)c1Cl)C2 [Compound 112, 5-[2-amino-4-(2-chloro-4-fluorophenoxy)-5H,6H,7H,8H-pyrido[3,4-d]pyrimidin-7-yl]-4-chloro-2,3-dihydropyridazin-3-one] |
| 50 to 500 nM | Nc1nc2c(c(Oc3ccccc3Cl)n1)CCN(c1cn[nH]c(=O)c1Cl)C2 [Compound 113] |
| < 50 nM | O=c1[nH]ncc(N2CCc3c(nc(CO)nc3Oc3ccc(F)cc3Cl)C2)c1Cl [Compound 114] |
| 50 to 500 nM | O=c1[nH]ncc(N2CCc3c(nc(NCCO)nc3Oc3ccccc3C(F)(F)F)C2)c1Cl [Compound 115, 4-chloro-5-[2-[(2-hydroxyethyl)amino]-4-[2-(trifluoromethyl)phenoxy]-5H,6H,7H,8H-pyrido[3,4-d]pyrimidin-7-yl]-2,3-dihydropyridazin-3-one] |
| < 50 nM | Nc1nc2c(c(Oc3ccc(F)cc3C(F)(F)F)n1)CCN(c1cn[nH]c(=O)c1Cl)C2 [Compound 116] |
| 50 to 500 nM | C[C@@H]1c2ncnc(Oc3ccc(F)cc3Cl)c2CCN1c1cn[nH]c(=O)c1Cl [Compound 118, 4-chloro-5-[(8R)-4-(2-chloro-4-fluorophenoxy)-8-methyl-5H,6H,7H,8H-pyrido[3,4-d]pyrimidin-7-yl]-2,3-dihydropyridazin-3-one] |
| < 50 nM | C[C@@H](O)c1nc2c(c(Oc3ccc(F)cc3Cl)n1)CCN(c1cn[nH]c(=O)c1Cl)C2 [Compound 119] |
| < 50 nM | O=c1[nH]ncc(N2CCc3c(ccnc3Oc3ccc(F)cc3C(F)(F)F)C2)c1Cl [Compound 120, 4-chloro-5-[5-[4-fluoro-2-(trifluoromethyl)phenoxy]-1,2,3,4-tetrahydro-2,6-naphthyridin-2-yl]-2,3-dihydropyridazin-3-one] |
